Assay results published in PubChem BioAssay (NCI).
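How tested: cells in 96-well plates exposed to compound for 48 hours at five concentrations. TGI: total growth inhibition.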

How the values were obtained:
Assay in all cases: inhibition of tumour cell growth, NCI panel, 48 h
IGROV1 ovarian = test system: IGROV1 ovarian
SK-MEL-2 melanoma = test system: SK-MEL-2 melanoma
UACC-257 melanoma = test system: UACC-257 melanoma
TK-10 renal = test system: TK-10 renal
MALME-3M melanoma = test system: MALME-3M melanoma
BT-549 breast = test system: BT-549 breast
SR leukemia = test system: SR leukemia
SW-620 colon = test system: SW-620 colon
U251 CNS = test system: U251 CNS
HL-60(TB) leukemia = test system: HL-60(TB) leukemia
KM12 colon = test system: KM12 colon
A549 NSCLC = test system: A549 NSCLC
DU-145 prostate = test system: DU-145 prostate
SK-MEL-28 melanoma = test system: SK-MEL-28 melanoma
HT29 colon = test system: HT29 colon
HCC-2998 colon = test system: HCC-2998 colon
HS 578T breast = test system: HS 578T breast
ACHN renal = test system: ACHN renal
UACC-62 melanoma = test system: UACC-62 melanoma
CAKI-1 renal = test system: CAKI-1 renal
NCI-H460 lung = test system: NCI-H460 lung
SF-539 CNS = test system: SF-539 CNS
OVCAR-8 ovarian = test system: OVCAR-8 ovarian
A498 renal = test system: A498 renal
HCT-116 colon = test system: HCT-116 colon
786-0 renal = test system: 786-0 renal
RXF 393 renal = test system: RXF 393 renal
SK-MEL-5 melanoma = test system: SK-MEL-5 melanoma
NCI-H23 lung = test system: NCI-H23 lung
M14 melanoma = test system: M14 melanoma
COLO 205 colon = test system: COLO 205 colon
OVCAR-4 ovarian = test system: OVCAR-4 ovarian
SNB-19 CNS = test system: SNB-19 CNS
LOX IMVI melanoma = test system: LOX IMVI melanoma
MCF7 breast = test system: MCF7 breast
SNB-75 CNS = test system: SNB-75 CNS
MDA-MB-231 breast = test system: MDA-MB-231 breast
RPMI-8226 leukemia = test system: RPMI-8226 leukemia
OVCAR-3 ovarian = test system: OVCAR-3 ovarian
HOP-92 NSCLC = test system: HOP-92 NSCLC
EKVX NSCLC = test system: EKVX NSCLC
NCI/ADR-RES ovarian = test system: NCI/ADR-RES ovarian
PC-3 prostate = test system: PC-3 prostate
SN12C renal = test system: SN12C renal
NCI-H226 lung = test system: NCI-H226 lung
CCRF-CEM leukemia = test system: CCRF-CEM leukemia
K-562 leukemia = test system: K-562 leukemia
T-47D breast = test system: T-47D breast
SF-268 CNS = test system: SF-268 CNS
OVCAR-5 ovarian = test system: OVCAR-5 ovarian
HOP-62 NSCLC = test system: HOP-62 NSCLC
UO-31 renal = test system: UO-31 renal
SF-295 CNS = test system: SF-295 CNS
HCT-15 colon = test system: HCT-15 colon
SK-OV-3 ovarian = test system: SK-OV-3 ovarian
NCI-H522 lung = test system: NCI-H522 lung
MOLT-4 leukemia = test system: MOLT-4 leukemia

Cc1cccc(-c2cc(=O)c3c(C)cc(C)nc3[nH]2)c1
TGI (IGROV1 ovarian): > 100 µM | TGI (SK-MEL-2 melanoma): > 100 µM | TGI (UACC-257 melanoma): > 100 µM | TGI (TK-10 renal): > 100 µM | TGI (MALME-3M melanoma): > 100 µM | TGI (BT-549 breast): 30.2 µM | TGI (SR leukemia): 9.3 µM | TGI (SW-620 colon): > 19.7 µM | TGI (U251 CNS): 37.6 µM | TGI (HL-60(TB) leukemia): 4.34 µM | TGI (KM12 colon): 21.9 µM | TGI (A549 NSCLC): > 100 µM | TGI (DU-145 prostate): > 100 µM | TGI (SK-MEL-28 melanoma): > 100 µM | TGI (HT29 colon): 19.1 µM | TGI (HCC-2998 colon): > 48.1 µM | TGI (HS 578T breast): > 20.3 µM | TGI (ACHN renal): > 100 µM | TGI (UACC-62 melanoma): > 100 µM | TGI (CAKI-1 renal): > 100 µM | TGI (NCI-H460 lung): 16.6 µM | TGI (SF-539 CNS): 12.1 µM | TGI (OVCAR-8 ovarian): > 100 µM | TGI (A498 renal): 29.3 µM | TGI (HCT-116 colon): > 39.1 µM | TGI (786-0 renal): > 100 µM | TGI (RXF 393 renal): > 100 µM | TGI (SK-MEL-5 melanoma): 15.8 µM | TGI (NCI-H23 lung): 40.4 µM | TGI (M14 melanoma): > 100 µM | TGI (COLO 205 colon): 8.16 µM | TGI (OVCAR-4 ovarian): > 100 µM | TGI (SNB-19 CNS): > 100 µM | TGI (LOX IMVI melanoma): > 100 µM | TGI (MCF7 breast): > 100 µM | TGI (SNB-75 CNS): 7.36 µM | TGI (MDA-MB-231 breast): 31.8 µM | TGI (RPMI-8226 leukemia): > 52.1 µM | TGI (OVCAR-3 ovarian): 4.6 µM | TGI (HOP-92 NSCLC): > 100 µM | TGI (EKVX NSCLC): > 100 µM | TGI (NCI/ADR-RES ovarian): 4.68 µM | TGI (PC-3 prostate): > 100 µM | TGI (SN12C renal): > 100 µM | TGI (NCI-H226 lung): 31.4 µM | TGI (CCRF-CEM leukemia): > 86.5 µM | TGI (K-562 leukemia): 32.3 µM | TGI (T-47D breast): > 100 µM | TGI (SF-268 CNS): > 100 µM | TGI (OVCAR-5 ovarian): > 100 µM | TGI (HOP-62 NSCLC): > 100 µM | TGI (UO-31 renal): > 100 µM | TGI (SF-295 CNS): > 63.8 µM | TGI (HCT-15 colon): > 56 µM | TGI (SK-OV-3 ovarian): > 100 µM | TGI (NCI-H522 lung): 2.85 µM | TGI (MOLT-4 leukemia): > 100 µM
